Structures can show the parent of a compound that is named as a salt. Where two headings read alike, the source gives them in different places.
Tests used:
HDAC (HeLa cell extract) = experiment: Primary assay: deacetylase activity, HeLa cell extract as source of HDAC; type: biochemical, human; details: for HDAC Inhibition HeLa, % @ 500: Table 1, @ 500
Excerpt: Briefly, this assay relies on the release of radioactive acetate from a radioactively labelled histone fragment by the action of HDAC enzyme. Test compounds, which inhibit HDAC, reduce the yield of radioactive acetate. Signal (e.g., scintillation counts) measured in the presence and absence of a test compound provide an indication of that compound's ability to inhibit HDAC activity. Decreased activity indicates increased inhibition by the test compound.
The histone fragment was an N-terminal sequence from histone H4, and it was labelled with radioactively labelled acetyl groups using tritiated acetylcoenzyme A (coA) in conjunction with an enzyme which is the histone acetyltransferase domain of the transcriptional coactivator p300. […] The acetylated peptide was then separated from free acetyl coA by size exclusion chromatography on Sephadex G-15 (Sigma G-15-120), using distilled H2O as the mobile phase.
After purification of the radiolabelled histone fragment, it was incubated with a source of HDAC (e.g., an extract of HeLa cells (a rich source of HDAC), recombinantly produced HDAC1 or HDAC2) and any released acetate was extracted into an organic phase and quantitatively determined using scintillation counting. By including a test compound with the source of HDAC, that compound's ability to inhibit the HDAC was determined.
Two cell volumes of extraction buffer were used, and particulate material was centrifuged out (20800 g, 4° C., 10 min). The supernatant extract having deacetylase activity was aliquotted and frozen for storage.
A source of HDAC (e.g., 2 μL of crude HeLa extract, 5 μL of HDAC1 or HDAC2; in elution buffer, as above) was incubated with 3 μL of radioactively labelled peptide along with appropriate dilutions of candidate compounds (1.5 μL) in a total volume of 150 μL of buffer (20 mM Tris pH 7.4, 10% glycerol). The reaction was carried out at 37° C. for one hour, after which the reaction was stopped by adding 20 μL of 1 M HCl/0.4 M sodium acetate. […] Radioactivity was measured using a Tri-Carb 21 00TR Liquid Scintillation Analyzer (Packard).
Percent activity (% activity) for each test compound was calculated as: % activity={(S^C−B)/(S°−B)}×100 wherein S^C denotes signal measured in the presence of enzyme and the compound being tested, S° denotes signal measured in the presence of enzyme but in the absence of the compound being tested, and B denotes the background signal measured in the absence of both enzyme and compound being tested.

HeLa cells = experiment: Secondary assay: cell proliferation WST-1, HeLa; type: cell-based; details: Homo sapiens, read-out: Cell Proliferation Inhibition WST-1 (IC50 unless otherwise specified) HeLa
JURKAT human T-cell line = experiment: Secondary assay: cell proliferation WST-1, Jurkat; type: cell-based; details: Homo sapiens, Table 2, 48 h, read-out: Cell Proliferation Inhibition WST-1 (IC50 unless otherwise specified) Jurkat
[1] = test system: K11 HPV E7 transformed human keratinocyte line; experiment: Secondary assay: cell proliferation WST-1, K11; type: cell-based; details: Homo sapiens, Keratinocyte; for IC50: Table 2, 48 h, read-out: Cell Proliferation Inhibition WST-1 (IC50 unless otherwise specified) K11
[2] = Table 1, read-out: HDAC Inhibition (IC50 unless otherwise specified) HeLa
[3] = comparative tables, HDAC inhibition, read-out: HeLa IC50

Row | Compound | melting point | IC50 (HDAC (HeLa cell extract); [2]) | HDAC Inhibition HeLa, % @ 500 (HDAC (HeLa cell extract)) | further results
1 | O=C(/C=C/c1cccc(S(=O)(=O)NCc2cccc3ccccc23)c1)NO [PX117225, N-Hydroxy-3-{3-[(naphthalen-1-ylmethyl)sulfamoyl]-phenyl}-acrylamide] | 177 °C | 640 nM |  | IC50 (HDAC (HeLa cell extract); [3]): 640 nM; IC50 (HeLa cells; 48 h): 11900 nM; IC50 (JURKAT human T-cell line): 3300 nM; inhibition at 20 µM ([1]; Table 2, @ 20 μM, 48 h): 26%
2 | O=C(CCCCS(=O)(=O)Nc1ccccc1)NO [PX117233, 5-(Anilinosulfonyl)-N-hydroxypentanamide] | 128 to 129 °C |  | 21% @ 500 | 
3 | COc1cc(CNS(=O)(=O)c2cccc(/C=C/C(=O)NO)c2)cc(OC)c1OC [PX117778, N-Hydroxy-3-[3-(3,4,5-trimethoxy-benzylsulfamoyl)-phenyl]-acrylamide] |  | > 400 nM |  | IC50 (JURKAT human T-cell line): > 10000 nM; IC50 [1]: > 30000 nM
4 | O=C(CCCCCS(=O)(=O)Nc1ccccc1)NO [PX117234, 6-(Anilinosulfonyl)-N-hydroxyhexanamide] | 97 to 98 °C |  | 59% @ 500 | HeLa, % @ 500 nM (HDAC (HeLa cell extract); comparative tables): 59% @ 500 nM
5 | O=C(/C=C/c1cccc(S(=O)(=O)Nc2ccc(Br)cc2)c1)NO [PX106509] | 204 °C | 6 nM |  | IC50 (HeLa cells; Table 2, 48 h): 2000 nM; IC50 (JURKAT human T-cell line): 330 nM; IC50 [1]: 2000 nM
6 | O=C(/C=C/c1ccc(NS(=O)(=O)c2ccccc2)cc1)NO [PX106499, 3-(4-Benzenesulfonylaminophenyl)-N-hydroxyacrylamide] |  | 35 nM |  | IC50 (HDAC (HeLa cell extract); [3]): 35 nM; IC50 (HeLa cells; Table 2, 48 h): 3800 nM
7 | O=C(CCCCCNS(=O)(=O)c1cccnc1)NO (as salt: oxalate) [PX117432, 6-(Pyridine-3-sulfonylamino)hexanoic acid hydroxyamide oxalate] | 132 to 134 °C |  |  | 
8 | COc1ccc(CCNS(=O)(=O)c2cccc(/C=C/C(=O)NO)c2)cc1OC [PX117779, 3-{3-[2-(3,4-Dimethoxy-phenyl)-ethylsulfamoyl]-phenyl}-N-hydroxy-acrylamide] |  | 250 nM |  | IC50 (HeLa cells; Table 2, 48 h): 9600 nM; IC50 (JURKAT human T-cell line): 1100 nM; IC50 [1]: 1400 nM
9 | O=C(/C=C/c1cccc(S(=O)(=O)NC2Cc3ccccc3C2)c1)NO [PX117735, N-Hydroxy-3-[3-(indan-2-ylsulfamoyl)-phenyl]-acrylamide] | 164 °C | 6 nM |  | IC50 (JURKAT human T-cell line): 74 nM; IC50 [1]: 3100 nM
10 | O=C(CCCCCS(=O)(=O)N(Cc1ccccc1)c1ccccc1)NO [PX117414, 6-[(Benzylanilino)sulfonyl]-N-hydroxyhexanamide] | 129 to 129.5 °C |  | 46% @ 500 | 
11 | CN(c1ccccc1)S(=O)(=O)c1ccccc1/C=C/C(=O)NO [PX117448, N-Hydroxy-3-[2-(methyl-phenyl-sulfamoyl)-phenyl]-acrylamide] | 144.5 to 145.5 °C |  | 3% @ 500 | HeLa, % @ 500 nM (HDAC (HeLa cell extract); comparative tables): 3% @ 500 nM; IC50 (HeLa cells; 48 h): 88900 nM
12 | O=C(CCCCCNS(=O)(=O)c1ccccc1)NO [PX106522, 6-Benzenesulfonylaminohexanoic acid hydroxyamide] | 80 to 82 °C | 1580 nM |  | IC50 (HDAC (HeLa cell extract); [3]): 1600 nM; IC50 (HeLa cells; Table 2, 48 h): 16700 nM
13 | O=C(/C=C/c1cccc(S(=O)(=O)NCc2cccnc2)c1)NO [PX117250, N-Hydroxy-3-{3-[(pyridin-3-ylmethyl)-sulfamoyl]-phenyl}-acrylamide] | 191 °C | 192 nM |  | IC50 (HeLa cells; Table 2, 48 h): 7800 nM; IC50 (JURKAT human T-cell line): 1000 nM
14 | O=C(CCCCCCCS(=O)(=O)N(Cc1ccccc1)c1ccccc1)NO [PX117412, 8-[(Benzylanilino)sulfonyl]-N-hydroxyoctanamide] | 119 to 119.5 °C |  | 54% @ 500 | 
15 | O=C(CCCCCNS(=O)(=O)c1cccnc1)NO [PX117432, 6-(Pyridine-3-sulfonylamino)hexanoic acid hydroxyamide oxalate] |  |  | 24% @ 500 | 
16 | O=C(/C=C/c1ccc(S(=O)(=O)Nc2ccccc2)cc1)NO [PX117450, N-Hydroxy-3-(4-phenylsulfamoylphenyl)acrylamide] | 176 to 177.5 °C | 20 nM |  | IC50 (HDAC (HeLa cell extract); [3]): 20 nM; IC50 (HeLa cells; Table 2, 48 h): 1600 nM
17 | CN(c1ccccc1)S(=O)(=O)CCCCCCC(=O)NO [PX117260, N-Hydroxy-7-[(methylanilino)sulfonyl]heptanamide] | 69 to 70 °C |  | 35% @ 500 | 
18 | O=C(CCCCCCS(=O)(=O)Nc1ccccc1)NO [PX117236] | 94 to 95 °C |  | 54% @ 500 | 
19 | O=C(/C=C/c1ccccc1S(=O)(=O)Nc1cccc2ccccc12)NO [PX117447, N-Hydroxy-3-[2-(naphthalen-1-ylsulfamoyl)-phenyl]-acrylamide] | 186 to 187 °C |  | 3% @ 500 | HeLa, % @ 500 nM (HDAC (HeLa cell extract); comparative tables): 3% @ 500 nM; IC50 (HeLa cells; 48 h): 77800 nM
20 | O=C(/C=C/C#Cc1cccc(S(=O)(=O)Nc2ccccc2)c1)NO [PX116238, (E)-5-(3-Phenylsulfamoylphenyl)pent-2-en-4-ynoic acid hydroxyamide] | 88 to 90 °C | 14 nM |  | IC50 (HDAC (HeLa cell extract); [3]): 14 nM; IC50 (HeLa cells; Table 2, 48 h): 800 nM
21 | O=C(CCCCS(=O)(=O)Nc1ccc2ccccc2c1)NO [PX117235, N-Hydroxy-5-[(2-naphthylamino)sulfonyl]pentanamide] | 163 to 164 °C |  | 40% @ 500 | 
22 | CN(c1ccccc1)S(=O)(=O)CCCCCCCC(=O)NO [PX117411, N-Hydroxy-8-[(methylanilino)sulfonyl]octanamide] | 65.5 to 66.5 °C |  | 39% @ 500 | 
23 | O=C(CCCCCNS(=O)(=O)/C=C/c1ccccc1)NO [PX117429, 6-(2-Phenylethenesulfonylamino)hexanoic acid hydroxyamide] | 107 to 109 °C |  | 73% @ 500 | 
24 | O=C(/C=C/c1ccc(S(=O)(=O)Nc2ccc3ccccc3c2)cc1)NO [PX117736, N-Hydroxy-3-[4-(naphthalen-2-ylsulfamoyl)-phenyl]-acrylamide] | 198.5 to 199.5 °C | 6 nM |  | IC50 (JURKAT human T-cell line): 120 nM; IC50 [1]: 800 nM
25 | O=C(/C=C/c1cccc(S(=O)(=O)Nc2ccccc2-c2ccccc2)c1)NO [PX117713, 3-[3-(Biphenyl-2-ylsulfamoyl)phenyl]-N-hydroxy-acrylamide] |  | 138 nM |  | IC50 (HeLa cells; Table 2, 48 h): 5100 nM; IC50 (JURKAT human T-cell line): 620 nM; IC50 [1]: 9200 nM
26 | O=C(/C=C/c1ccccc1S(=O)(=O)Nc1ccccc1)NO [PX116242, N-Hydroxy-3-(2-phenylsulfamoylphenyl)acrylamide] | 205 to 206.5 °C |  | 9% @ 500 | HeLa, % @ 500 nM (HDAC (HeLa cell extract); comparative tables): 9% @ 500 nM
27 | CN(c1ccccc1)S(=O)(=O)CCCCCC(=O)NO [PX117410, N-Hydroxy-6-[(methylanilino)sulfonyl]hexanamide] | 121 to 122 °C |  | 40% @ 500 | 

— US7407988B2, “Carbamic acid compounds comprising a sulfonamide linkage as HDAC inhibitors” (Topotarget UK Limited, priority 2000, dated 2008)
